Patent publication US5583221A, “Substituted fused and bridged bicyclic compounds as therapeutic agents” (Eli Lilly and Company, priority 1995, dated 1996)
Counter-ions that a name gives are not always drawn.

Experiments:
MCF-7 = assay: growth inhibition of cultured tumor cells (MCF-7); type: cell-based; conditions: Homo sapiens, MCF7, read-out: IC50 of Compounds in Cells, MCF-7
Method: (§1) To investigate the effect that Formula I compounds have on cell growth and activity, assays are performed such as to determine growth inhibition of cultured tumor cells and cultured keritinocytes, and neutrophil superoxide anion release by well known techniques.
(§2) Table 1 also includes data from testing in a cellular assay known as the "Bleb" assay. In the Bleb assay K562 cells, a human chronic myeloid leukemia cell line, are treated with compound and scored for the appearance of morphologic changes referred to as blebs on the cell surface. […] H. Osada et al., (1988) 41:7, 925.

NHEK = assay: growth inhibition of cultured keritinocytes (NHEK); type: cell-based; conditions: read-out: IC50 of Compounds in Cells, NHEK
Method: as §1, §2

[1] = tested on: phorbol ester-induced mouse ear edema; assay: phorbol ester-induced mouse ear edema model; type: in vivo
Method: Formula I compounds also have been tested in vivo to determine their antiinflammatory activity. The model used for this testing is the well-known, widely accepted phorbol ester-induced mouse ear edema model wherein the efficacy of a test compound to reduce the edema induced by the phorbol ester is measured.

NEUTROPHILS = assay: neutrophil superoxide anion release; type: cell-based; conditions: read-out: IC50 of Compounds in Cells, NEUTROPHILS
Method: as §1, §2

K562 cells [2] = assay: Bleb assay in K562 cells; type: cell-based; conditions: Homo sapiens, blebs on the cell surface, read-out: IC50 of Compounds in Cells, BLEB
Method: as §2

[3] = water solubility noted during work-up; type: physicochemical; conditions: observation during HPLC fraction work-up
Method: A solution of 8-exo-[4-(2-carbophenylmethoxy-6-phenylmethoxybenzoyl)-3,5-bis(phenylmethoxy)benzoyloxy]-9-endo-(4-phenylmethoxybenzamido)tricyclo[5.2.1.0 (2,6)]decane (0.33 g, 0.32 mmol) in 6:1 ethanol/ethyl acetate (35 mL) in a 500 mL Parr bottle was treated with trifluoroacetic acid (0.15 mL) and purged with nitrogen. Pearlman's catalyst (150 mg) was added, and the vessel was charged with hydrogen (50 psi) and shaken on a Parr apparatus for 18 h. The bottle was carefully evacuated of hydrogen and the solution was filtered through Celite®, then the filter cake was washed with ethanol, but not allowed to dry. The filtrate was concentrated in vacuo to a foamy yellow solid, which was dissolved in DMF (0.8 mL) and loaded onto HPLC; conditions: A- 0.1% TFA/5% CH3 CN/H2 O, B- CH3 CN, 100% A to 100% B over one h, 25 mL/min, 41×250 mm C18 column. […] (dec). Rf (2:1 methylene chloride/methanol on silica) 0.50; IR (KBr) 1703, 1635, 1608 cm^-1; ^1 H NMR (d6 -DMSO) d 11.66 (s, 2H), 9.97 (br s, 1H), 9.88 (s, 1H), 8.35 (d, 1H, J=7 Hz), 7.75 (d, 2H, J=9 Hz), 7.38 (d, 1H, J=8 Hz), 7.28 (t, 1H, J=8 Hz), 7.06 (d, 1H, J=8 Hz), 6.83 (s, 2H), 6.79 (d, 2H, J=9 Hz), 4.83 (d, 1H, J=2.5 Hz), 4.11 (m, 1H), 2.25 (d, 1H, J=4 Hz), 2.10-2.20 (m, 1H), 2.07 (br s, 2H), 1.60-2.00 (m, 3H), 1.48 (br s, 2H), 1.10-1.30 (m, 1H), 0.90-1.10 (m, 2H); mass spectrum (FAB): m/z 588. […]

K562 cells [4] = conditions: previous studies, H. Osada et al. (1988); cited from earlier work

Compound | IC50 (MCF-7) | IC50 (NHEK) | antiinflammatory activity: reduction of edema induced by phorbol ester [1] | also measured
COC(=O)c1cccc(O)c1C(=O)c1c(O)cc(C(=O)OC2C3CCC(C3)C2NC(=O)c2ccc(O)cc2)cc1O (stereo not drawn) [Example 16, anti-2-[4-(2-Methoxycarbonyl-6-hydroxybenzoyl)-3,5-dihydroxybenzoyloxy]-3-(4-hydroxybenzamido)bicyclo[2.2.1]heptane] |  |  | active | IC50 (NEUTROPHILS): 10 µM; IC50 (K562 cells [2]): 25 µM
O=C(N[C@H]1[C@H]2CC[C@H](C2)[C@H]1OC(=O)c1cc(O)c(C(=O)c2c(O)cccc2C(=O)O)c(O)c1)c1ccc(O)cc1 (relative stereo) [Example 12, syn-2-[4-(2-Carboxy-6-hydroxybenzoyl)-3,5-dihydroxybenzoyloxy]-3-(4-hydroxybenzamido)bicyclo[2.2.1]heptane] |  |  | active | 
O=C(NC1C2CC(C3CCCC32)C1OC(=O)c1cc(O)c(C(=O)c2c(O)cccc2C(=O)O)c(O)c1)c1ccc(O)cc1 (stereo not drawn) [Example 21, 8-endo-[4-(2-Carboxy-6-hydroxybenzoyl)-3,5-dihydroxybenzoyl-oxy]-9-endo-(4-hydroxybenzamido)tricyclo[5.2.1.0 (2,6)]decane] |  |  |  | water solubility [3]: not water-soluble
7-[4-(2-Methoxycarbonyl-6-hydroxybenzoyl)-3,5-dihydroxybenzoyloxy]-2-(hydroxybenzamido)bicyclo[2.2.1]heptane [Example 14] |  |  |  | IC50 (NEUTROPHILS): 10 µM
CN[C@@H]1C[C@H]2O[C@@](C)([C@@H]1OC)n1c3ccccc3c3c4c(c5c6ccccc6n2c5c31)C(=O)NC4 [staurosporine] |  |  |  | phorbol ester-induced blebbing (K562 cells [4]): inhibits
O=C(NC1C2CC(C3CCCC32)C1OC(=O)c1cc(O)c(C(=O)c2c(O)cccc2C(=O)O)c(O)c1)c1ccc(O)cc1 (stereo not drawn) [Example 20, 8-exo-[4-(2-Carboxy-6-hydroxybenzoyl)-3,5-dihydroxybenzoyloxy]-9-endo-(4-hydroxybenzamido)tricyclo[5.2.1.0 (2,6)]decane] |  |  |  | water solubility [3]: not water-soluble
O=C(NC1C2CCC(C2)C1OC(=O)c1cc(O)c(C(=O)c2c(O)cccc2C(=O)O)c(O)c1)c1ccc(O)cc1 (stereo not drawn) [Example 13, anti-2-[4-(2-Carboxy-6-hydroxybenzoyl)-3,5-dihydroxybenzoyloxy]-3-(4-hydroxybenzamido)bicyclo[2.2.1]heptane] |  |  | active | 

More lines, main results first:

IC50 (MCF-7) | Compound | IC50 (NHEK) | antiinflammatory activity: reduction of edema induced by phorbol ester [1] | also measured
71 µM | O=C(N[C@@H]1c2ccccc2C[C@H]1OC(=O)c1cc(O)c(C(=O)c2c(O)cccc2C(=O)O)c(O)c1)c1ccc(O)cc1 (relative stereo) [Example 3, anti-1-(4-Hydroxybenzamido)-2-[3,5-dihydroxy-4-(2-carboxy-6-hydroxybenzoyl)benzoyloxy]indane] | 50 µM | active | 
2.1 to 4 µM | O=C(N[C@@H]1c2ccccc2C[C@@H]1OC(=O)c1cc(O)c(C(=O)c2c(O)cccc2C(=O)O)c(O)c1)c1ccc(O)cc1 (relative stereo) [Example 4, syn-(4-Hydroxybenzamido)-2-[3,5-dihydroxy-4-(2-carboxy-6-hydroxybenzoyl)benzoyloxy]indane] | 43 µM |  | 
74 µM | COC(=O)c1cccc(O)c1C(=O)c1c(O)cc(C(=O)O[C@@H]2C3CCN(CC3)C[C@H]2NC(=O)c2ccc(O)cc2)cc1O (relative stereo) [Example 8, anti-4-[4-(2-methoxycarbonyl-6-hydroxybenzoyl)-3,5-dihydroxybenzoyloxy]-3-(4-hydroxybenzamido)-1-azabicyclo[3.2.2]nonane, trifluoroacetic acid salt] | 92 µM |  | IC50 (K562 cells [2]): 12.5 µM
23 µM | COC(=O)c1cccc(O)c1C(=O)c1c(O)cc(C(=O)O[C@@H]2Cc3ccccc3[C@H]2NC(=O)c2ccc(O)cc2)cc1O (relative stereo) [Example 5] | 5 µM | active | IC50 (K562 cells [2]): 50 µM
